In the NIST ThermoML archive (doi:10.1016/j.jct.2016.03.030):

Assay: molar heat capacity at constant pressure; xn = mol fraction of the nth substance listed
Conditions: 100 kPa, Liquid, Small sample (50 mg) DSC

CCCC[N+]1(C)CCOCC1.[Br-] [4-butyl-4-methylmorpholinium bromide] + O
molar heat capacity at constant pressure [J/K/mol]
Conditions	298.15 K	303.15 K	308.15 K	313.15 K	318.15 K	323.15 K	328.15 K	333.15 K	338.15 K	343.15 K
x1 = 0.0363	87.85	87.9	88.24	88.5	88.76	89.02	89.23	89.41	89.57	89.8
x1 = 0.0601	94.21	94.49	95.08	95.61	96.11	96.14	96.74	97.08	97.24	97.27
x1 = 0.1242	111.81	112.44	113.49	114.39	115.3	116.21	117.02	117.79	118.61	119.34
x1 = 0.2383	149.98	150.75	152.16	153.36	154.56	155.82	156.95	158.08	159.21	160.26
x1 = 0.2569	154.14	155.11	156.45	157.64	158.76	160.03	161.22	162.27	163.39	164.51
x1 = 0.3007	165.4	166.24	167.67	168.93	170.11	171.54	172.72	173.82	175	176.09
